Laboratory results published in US20030207877A1, “Pyridoquinoxaline antivirals” (priority 2001, published 2003).
pIC50: −log10 of the molar value.

Legend:
[1] = target: T1, HCMV polymerase (Human cytomegalovirus, UniProt P08546); test: HCMV polymerase assay (scintillation proximity assay), original and modified version; type: biochemical; settings: SPA; several values per example = repeat determinations, assay version not given; read-out: CMV Polymerase IC50
T1 construct: made in house; host or cells: SF-9 insect cells infected with recombinant baculovirus
T1 sequence (P08546 whole entry): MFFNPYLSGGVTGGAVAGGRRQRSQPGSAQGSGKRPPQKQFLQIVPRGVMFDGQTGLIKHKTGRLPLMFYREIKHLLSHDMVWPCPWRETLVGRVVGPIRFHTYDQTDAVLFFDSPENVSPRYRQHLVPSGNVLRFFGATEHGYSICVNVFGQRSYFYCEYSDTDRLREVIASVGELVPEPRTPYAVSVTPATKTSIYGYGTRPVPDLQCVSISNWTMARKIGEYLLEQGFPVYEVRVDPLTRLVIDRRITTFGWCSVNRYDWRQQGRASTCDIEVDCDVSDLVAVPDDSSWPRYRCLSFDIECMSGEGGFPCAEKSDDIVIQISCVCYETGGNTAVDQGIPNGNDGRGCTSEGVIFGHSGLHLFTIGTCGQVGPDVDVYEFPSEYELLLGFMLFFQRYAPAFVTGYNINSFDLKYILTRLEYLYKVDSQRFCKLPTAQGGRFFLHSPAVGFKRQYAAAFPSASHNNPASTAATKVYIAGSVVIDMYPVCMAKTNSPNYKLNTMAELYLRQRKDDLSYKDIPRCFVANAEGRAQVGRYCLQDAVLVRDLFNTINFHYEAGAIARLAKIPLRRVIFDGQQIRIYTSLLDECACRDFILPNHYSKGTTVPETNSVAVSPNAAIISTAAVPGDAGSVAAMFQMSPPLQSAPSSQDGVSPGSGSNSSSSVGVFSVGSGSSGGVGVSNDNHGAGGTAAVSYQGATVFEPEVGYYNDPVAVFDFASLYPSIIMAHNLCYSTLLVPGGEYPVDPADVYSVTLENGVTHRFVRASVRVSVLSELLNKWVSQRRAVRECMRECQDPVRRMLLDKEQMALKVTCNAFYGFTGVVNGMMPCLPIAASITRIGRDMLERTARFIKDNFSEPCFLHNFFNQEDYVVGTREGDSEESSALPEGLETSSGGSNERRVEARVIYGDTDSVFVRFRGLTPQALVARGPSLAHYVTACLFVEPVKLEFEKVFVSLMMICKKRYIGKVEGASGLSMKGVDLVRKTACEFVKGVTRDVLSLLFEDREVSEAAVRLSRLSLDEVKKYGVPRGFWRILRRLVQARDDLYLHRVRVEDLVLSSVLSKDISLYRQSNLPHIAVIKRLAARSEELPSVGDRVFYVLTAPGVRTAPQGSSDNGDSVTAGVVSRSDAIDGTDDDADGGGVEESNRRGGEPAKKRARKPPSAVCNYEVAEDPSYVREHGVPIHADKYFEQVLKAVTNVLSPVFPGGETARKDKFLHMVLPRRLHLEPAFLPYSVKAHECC
Method: The HCMV polymerase assay is performed using a scintillation proximity assay (SPA) as described in several references, such as N.D. Cook, et al., Pharmaceutical Manufacturing International, pages 49-53 (1992); K. Takeuchi, Laboratory Practice, September issue (1992); U.S. Pat. No. 4,568,649 (1986); which are incorporated by reference herein. Reactions are performed in 96-well plates. The assay is conducted in 100 μl volume with 5.4 mM HEPES (pH 7.5), 11.7 MM KCl, 4.5 mM MgCl2, 0.36 mg/ml BSA, and 90 nM ^3H-dTTP. Assays are run with and without CHAPS, (3-[(3-Cholamidopropyl)-dimethylammoniol-1-propane-sulfonate) at a final concentration of 2 mM. HCMV polymerase is diluted in enzyme dilution buffer containing 50% glycerol, 250 mM NaCl, 10 mM HEPES (pH 7.5), 100 μg/ml BSA, and 0.01% sodium azide. The HCMV polymerase, which is expressed in recombinant baculovirus-infected SF-9 cells and purified according to literature procedures, is added at 10% (or 10 μl) of the final reaction volume, i.e., 100 μl. Compounds are diluted in 50% DMSO and 10 μl are added to each well. Control wells contain an equivalent concentration of DMSO. Unless noted otherwise, reactions are initiated via the addition of 6 nM biotinylated poly(dA)-oligo(dT) template/primer to reaction mixtures containing the enzyme, substrate, and compounds of interest. Plates are incubated in a 25° C. or 37° C. H2O bath and terminated via the addition of 40 μl/reaction of 0.5 M EDTA (pH 8) per well. Reactions are terminated within the time-frame during which substrate incorporation is linear and varied depending upon the enzyme and conditions used, i.e., 30 min. for HCMV polymerase. Ten (10) μl of streptavidin-SPA beads (20 mg/ml in PBS/10% glycerol) are added following termination of the reaction. Plates are incubated 10 min. at 37° C., then equilibrated to room temperature, and counted on a Packard Topcount. Linear regressions are performed and IC50's are calculated using computer software.
A modified version of the above HCMV polymerase assay is performed as described above, but with the following changes: Compounds are diluted in 100% DMSO until final dilution into assay buffer. In the previous assay, compounds are diluted in 50% DMSO. 4.5 mM dithiotherotol (DTT) is added to the polymerase buffer.

Structure (SMILES)	pIC50 [1]	melting point [°C]
CN(Cc1cc2c3c(c1)c(=O)c(C(=O)NCc1ccc(Cl)cc1)cn3CC(=O)N2C)CC(O)c1ccoc1 (racemic) [Example 4, rac N-(4-chlorobenzyl)-9-{([2-(3-furyl)-2-hydroxyethyl](methyl)amino)methyl}-1-methyl-2,7-dioxo-2,3-dihydro-1H,7H-pyrido[1,2,3-de]quinoxaline-6-carboxamide]	6.24	145 to 148
CN(Cc1cc2c3c(c1)c(=O)c(C(=O)NCc1ccc(Cl)cc1)cn3CC(=O)N2C)CC(O)c1ccco1 (racemic) [Example 5, rac N-(4-chlorobenzyl)-9-{([2-(2-furyl)-2-hydroxyethyl](methyl)amino)methyl}-1-methyl-2,7-dioxo-2,3-dihydro-1H,7H-pyrido[1,2,3-de]quinoxaline-6-carboxamide]	6.62	153 to 155
Cc1cc(C(O)CN(C)Cc2cc3c4c(c2)c(=O)c(C(=O)NCc2ccc(Cl)cc2)cn4CC(=O)N3C)c(C)o1 (racemic) [Example 7, rac N-(4-chlorobenzyl)-9-{([2-(2,5-dimethyl-3-furyl)-2-hydroxyethyl](methyl)amino)methyl}-1-methyl-2,7-dioxo-2,3-dihydro-1H,7H-pyrido[1,2,3-de]quinoxaline-6-carboxamide]	6.60	157 to 160
Cc1cccc(C(O)CN(C)Cc2cc3c4c(c2)c(=O)c(C(=O)NCc2ccc(Cl)cc2)cn4CC(=O)N3C)n1 (racemic) [Example 8, rac N-(4-chlorobenzyl)-9-{([2-hydroxy-2-(6-methylpyridin-2-yl)ethyl](methyl)amino)methyl}-1-methyl-2,7-dioxo-2,3-dihydro-1H,7H-pyrido [1,2,3-de]quinoxaline-6-carboxamide]	5.96	156 to 158
COc1cc(C(O)CN(C)Cc2cc3c4c(c2)c(=O)c(C(=O)NCc2ccc(Cl)cc2)cn4CC(=O)N3C)ccc1O (racemic) [Example 10, rac N-(4-chlorobenzyl)-9-{([2-hydroxy-2-(4-hydroxy-3-methoxyphenyl)ethyl](methyl)amino)methyl}-1-methyl-2,7-dioxo-2,3-dihydro-1H,7H-pyrido[1,2,3-de]quinoxaline-6-carboxamide]	6.62	133 to 136
CN(Cc1cc2c3c(c1)c(=O)c(C(=O)NCc1ccc(Cl)cc1)cn3CC(=O)N2C)CC(O)Cc1ccccc1 (racemic) [Example 17, rac N-(4-chlorobenzyl)-9-{[(2-hydroxy-3-phenylpropyl)(methyl)amino]methyl}-1-methyl-2,7-dioxo-2,3-dihydro-1H,7H-pyrido [1,2,3-de]quinoxaline-6-carboxamide]	6.06	121 to 127
CN(Cc1cc2c3c(c1)c(=O)c(C(=O)NCc1ccc(Cl)cc1)cn3CC(=O)N2C)CC(O)c1ncccn1 (racemic) [Example 19, rac N-(4-chlorobenzyl)-9-{([2-hydroxy-2-pyrimidin-2-ylethyl](methyl)amino)methyl}-1-methyl-2,7-dioxo-2,3-dihydro-1H,7H-pyrido [1,2,3-de]quinoxaline-6-carboxamide]	6.31	168 to 170
CN(Cc1cc2c3c(c1)c(=O)c(C(=O)NCc1ccc(Cl)cc1)cn3CC(=O)N2C)CC(O)c1ccc(C#N)s1 (racemic) [Example 20, rac N-(4-chlorobenzyl)-9-{([2-(5-cyanothein-2-yl)-2-hydroxyethyl](methyl)amino)methyl}-1-methyl-2,7-dioxo-2,3-dihydro-1H,7H-pyrido[1,2,3-de]quinoxaline-6-carboxamide]	6.39	122 to 126
CN(Cc1cc2c3c(c1)c(=O)c(C(=O)NCc1ccc(Cl)cc1)cn3CC(=O)N2CCO)CC(O)c1cc2ccccc2o1 (racemic) [Example 26, rac 9-{([2-(1-benzofuran-2-yl)-2-hydroxyethyl](methyl)amino)methyl}-N-(4-chlorobenzyl)-1-(2-hydroxyethyl)-2,7-dioxo-2,3-dihydro-1H,7H-pyrido[1,2,3-de]quinoxaline-6-carboxamide]	6.06	195 to 197
CN(Cc1cc2c3c(c1)c(=O)c(C(=O)NCc1ccc(Cl)cc1)cn3CC(=O)N2C)C[C@@H](O)c1nccs1 [Example 22, N-(4-chlorobenzyl)-9-{[[(2R)-2-hydroxy-2-(1,3-thiazol-2-yl)ethyl](methyl)amino]methyl}-1-methyl-2,7-dioxo-2,3-dihydro-1H,7H-pyrido[1,2,3-de]quinoxaline-6-carboxamide]	6.31	125 to 130
CN(Cc1cc2c3c(c1)c(=O)c(C(=O)NCc1ccc(Cl)cc1)cn3CC(=O)N2C)C[C@@H](O)c1cc2ccccc2o1 [Example 34, 9-{[[(2R)-2-(1-benzofuran-2-yl)-2-hydroxyethyl](methyl)amino]methyl)-N-(4-chlorobenzyl)-1-methyl-2,7-dioxo-2,3-dihydro-1H,7H-pyrido[1,2,3-de]quinoxaline-6-carboxamide]	8.40	–
CN(Cc1cc2c3c(c1)c(=O)c(C(=O)NCc1ccc(Cl)cc1)cn3CC(=O)N2C)C[C@H](O)c1cc2ccccc2o1 [Example 35, 9-{[[(2S)-2-(1-benzofuran-2-yl)-2-hydroxyethyl](methyl)amino]methyl}-N-(4-chlorobenzyl)-1-methyl-2,7-dioxo-2,3-dihydro-1H,7H-pyrido[1,2,3-de]quinoxaline-6-carboxamide]	6.74	–

Second part, the compound after the results:

pIC50 [1]	melting point [°C]	Structure (SMILES)
6.74	154 to 156	COc1cccc(C(O)CN(C)Cc2cc3c4c(c2)c(=O)c(C(=O)NCc2ccc(Cl)cc2)cn4CC(=O)N3C)c1 (racemic) [Example 18, rac N-(4-chlorobenzyl)-9-{([2-hydroxy-2-(3-methoxyphenyl)ethyl](methyl)amino)methyl}-1-methyl-2,7-dioxo-2,3-dihydro-1H,7H-pyrido[1,2,3-de]quinoxaline-6-carboxamide]
6.66	–	CN(Cc1cc2c3c(c1)c(=O)c(C(=O)NCc1ccc(Cl)cc1)cn3CC(=O)N2C)CC(O)c1ccccc1 (stereo not shown) [Example 1, N-(4-chlorobenzyl)-9-{[(2-hydroxy-2-phenylethyl) (methyl)amino]methyl}-1-methyl-2,7-dioxo-2,3-dihydro-1H,7H-pyrido[1,2,3-de]quinoxaline-6-carboxamide]
6.52	–	CN(Cc1cc2c3c(c1)c(=O)c(C(=O)NCc1ccc(Cl)cc1)cn3CC(=O)N2C)C[C@@H](O)c1ccccn1 [Example 9, N-(4-chlorobenzyl)-9-{[[(2R)-2-hydroxy-2-pyridin-2-ylethyl](methyl)amino]methyl}-1-methyl-2,7-dioxo-2,3-dihydro-1H,7H-pyrido[1,2,3-de]quinoxaline-6-carboxamide]
6.72	137 to 139	CN(Cc1cc2c3c(c1)c(=O)c(C(=O)NCc1ccc(Cl)cc1)cn3CC(=O)N2C)C[C@@H](O)c1ccsc1 [Example 14, N-(4-chlorobenzyl)-9-{[[(2S)-2-hydroxy-2-thien-3-ylethyl](methyl)amino]methyl}-1-methyl-2,7-dioxo-2,3-dihydro-1H,7H-pyrido[1,2,3-de]quinoxaline-6-carboxamide]
6.38	150 to 152	CN(Cc1cc2c3c(c1)c(=O)c(C(=O)NCc1ccc(F)cc1)cn3CC(=O)N2C)C[C@@H](O)c1ccco1 [Example 23, N-(4-fluorobenzyl)-9-{[[(2R)-2-(2-furyl)-2-hydroxyethyl](methyl)amino]methyl}-1-methyl-2,7-dioxo-2,3-dihydro-1H,7H-pyrido[1,2,3-de]quinoxaline-6-carboxamide]
5.73	121 to 123	CN(Cc1cc2c3c(c1)c(=O)c(C(=O)NCc1ccc(F)cc1)cn3CC(=O)N2C)C[C@@H](O)c1ccccn1 [Example 24, N-(4-fluorobenzyl)-9-{[[(2R)-2-hydroxy-2-pyridin-2-ylethyl](methyl)amino]methyl}-1-methyl-2,7-dioxo-2,3-dihydro-1H,7H-pyrido[1,2,3-de]quinoxaline-6-carboxamide]
6.03	108 to 110	CN(Cc1cc2c3c(c1)c(=O)c(C(=O)NCc1ccc(F)cc1)cn3CC(=O)N2C)C[C@@H](O)c1cccnc1 [Example 25]
